The values below come from patent US20260224563A1, “CRYSTALLINE FORMS OF 6-(3-((5-CHLORO-2-METHOXYPYRIDINE)-3-SULFONAMIDO)-2,6-DIFLUOROPHENYL)-N-METHYLIMIDAZO[1,5-A]PYRAZINE-1-CARBOXAMIDE AND METHODS FOR USING THE SAME” (HIBERCELL, INC., priority 2023, published 2026).

The nature of data set [1]: Pharmacokinetic study of HC-7366 via oral (PO) administration of different formulations in beagle dogs. The format is in vivo. As to conditions: dog, plasma, 7.5 mg/kg, PO 7.5 mpk, male beagle dogs. As for the experimental part: 10 mL of 0.001 N HCl was used to wash the gavage catheter for each animal.
A short description of data set [2]: Slurry study of potassium salt Form III in organic solvents and water (XRPD). The format is physicochemical. The settings on record: for Result at 3 days (XRPD): slurry in THF.
The nature of data set [3]: Solubility testing in organic solvents and water (visual, room temperature). The format is physicochemical.
Data set [4] is described as follows: Dynamic vapor sorption (DVS). It is filed as physicochemical. The settings on record: for DVS weight gain: 25° C., listed as Form III of the potassium salt. As for the experimental part: Moisture sorption/desorption data was collected on a Vsorp Dynamic Moisture Sorption Analyzer (ProUmid GmbH & Co. KG, Germany). The sample was placed into a tared sample chamber and automatically weighed.
• Equilibrium Condition: 0.01%/40 min • Time between weighing cycles: 10 minutes • Minimum time per climate cycle: 50 minutes • Maximum time per climate cycle: 2.0 hour • Balanced condition: 25° C. at 60% […] for 4 hours • Sample temperature: 25° C. • Adsorption: 70, 80, 90 • Desorption: 80, 70, 60, 50, 40, 30, 20, 10, 0 • Adsorption: 10, 20, 30, 40, 50, 60

A short description of data set [5]: Solubility in simulated biological fluid (FaSSGF and FaSSIF) at 37° C., HPLC; pH of filtrate, XRPD of filter cake. It is filed as physicochemical. As to conditions: for times more soluble than the free acid (Form II): 0.5-hour mark; for pH (0 h) / Concentration / pH (24 h) / XRPD (filter cake, crystal form): 37° C.; for Concentration / pH (24 h) / XRPD (filter cake, crystal form): listed as K salt Form III; for pH (24 h): filtrate; for XRPD (filter cake, crystal form): up to 24 hours. As for the experimental part: Approximately between 15 mg and 24 mg of sample was suspended in 5 mL or 8 mL of FaSSGF or FaSSIF, respectively. The resulting suspension was shaken at 700 rpm with a QQMSC-100 shaker at 37° C. The suspension was sampled and filtered at certain time intervals, which was achieved by sampling 1000 μL of each suspension which was then filtered and diluted, diluting the resulting filtrate for HPLC analysis to assess solubility. The pH of the filtrate was measured, and the filter cake was analyzed by XRPD.
Approximately 15 mg to 24 mg of sample was suspended in 5 or 8 mL of FaSSGF or FaSSIF, respectively. The resulting suspension was shaken at 700 rpm with a QQMSC-100 shaker at 37° C. The suspension was sampled and filtered at certain time intervals, which was achieved by sampling 1000 μL of each suspension was filtered and diluted, diluting the resulting filtrate for HPLC analysis to assess solubility. The pH of the filtrate was measured, and the filter cake was analyzed by XRPD.
Approximately 15 mg to 24 mg of sample was suspended in 5 or 8 mL of FaSSGF or FaSSIF, respectively. The resulting suspension was shaken at 700 rpm with a QQMSC-100 shaker at 37° C. The suspension was sampled and filtered in certain time interval, which was achieved by sampling 1000 μL of each suspension was filtered and diluted, diluting the resulting filtrate for HPLC analysis to assess solubility. The pH of the filtrate was measured, and the filter cake was analyzed by XRPD.

Molecules are shown by their SMILES. Where a name gives a salt, the structure may show the parent alone. Read-outs that look alike come from different tables or passages of the source.

For orientation: Tmax means the time from dosing to the highest level. `CNC(=O)c1ncn2cc(-c3c(F)ccc(NS(=O)(=O)c4cc(Cl)cnc4OC)c3F)ncc12` [HC-7366-K, 6-(3-((5-chloro-2-methoxypyridine)-3-sulfonamido)-2,6-difluorophenyl)-N-methylimidazo[1,5-a]pyrazine-1-carboxamide]: in data set [1], the Tmax stood at 4 h.

Usually Solubility stands for the concentration that dissolves in the medium under given conditions. One may read the bioavailability as dose-corrected exposure relative to a reference, in per cent. Low readings indicate poor availability, high ones good availability. `CNC(=O)c1ncn2cc(-c3c(F)ccc(NS(=O)(=O)c4cc(Cl)cnc4OC)c3F)ncc12` [Potassium salt Form III, 6-(3-((5-chloro-2-methoxypyridine)-3-sulfonamido)-2,6-difluorophenyl)-N-methylimidazo[1,5-a]pyrazine-1-carboxamide]: the “Result at 3 days (XRPD)” value in data set [2] (25° C.) and in data set [2] (50° C.) was “Potassium salt Form III” each time. Also, the “Result (XRPD)” value in data set [2] (slurry in Water, 25° C., 5 days, repeated aqueous slurry experiments) was “Potassium salt Form III (5 days)”. Further, the Solubility in data set [3] (Acetone, listed as Form III of the Potassium Salt) is roughly 500 µg/mL; in data set [3] (BuOH, 24 °C, organic solvent or mixture, thermodynamic from solid, BuOH, read-out: Solubility), less than 100 µg/mL; in data set [3] (DCM, listed as Form III of the Potassium Salt) it was less than 100 µg/mL; in data set [3] (DMSO, 24 °C, organic solvent or mixture, thermodynamic from solid, DMSO, read-out: Solubility), greater than 180000 µg/mL; in data set [3] (DMSO, listed as Form III of the Potassium Salt), greater than 180000 µg/mL; in data set [3] (EtOAc, listed as Form III of the Potassium Salt), less than 100 µg/mL. The Solubility was roughly 4000 µg/mL in data set [3] (EtOH, listed as Form III of the Potassium Salt); roughly 1000 µg/mL in data set [3] (H2O (water), listed as Form III of the Potassium Salt); less than 100 µg/mL in data set [3] (IPA, listed as Form III of the Potassium Salt); less than 100 µg/mL in data set [3] (IPAc, listed as Form III of the Potassium Salt); less than 100 µg/mL in data set [3] (MEK, listed as Form III of the Potassium Salt); less than 100 µg/mL in data set [3] (MTBE, 24 °C, organic solvent or mixture, thermodynamic from solid, MTBE, read-out: Solubility). Besides, the Solubility in data set [3] (MeCN, listed as Form III of the Potassium Salt) was less than 100 µg/mL; in data set [3] (MeOH, listed as Form III of the Potassium Salt), greater than 40000 µg/mL; in data set [3] (MeOH, listed as Form III of the potassium salt) it was greater than 40000 µg/mL; in data set [3] (THF, listed as Form III of the Potassium Salt), less than 100 µg/mL; in data set [3] (heptane, 24 °C, organic solvent or mixture, thermodynamic from solid, Heptane, read-out: Solubility), less than 100 µg/mL. In addition, the DVS weight gain entry in data set [4] (0 to 80% relative humidity) is on record as “around 0.18%”; in data set [4] (0 to 90% relative humidity), roughly 0.23%; in data set [4] (60 to 80% relative humidity), “around 0.13%”. Further, the “Hygroscopicity (DVS)” value in data set [4] (class by weight gain to 80% relative humidity) is given as “non-hygroscopic (non-hygroscopic may be defined as a <0.2% weight gain to 80% relative humidity)”. The bioavailability in data set [1] (in a capsule, n=3) was roughly 50%. For the same molecule, the “times more soluble than the free acid (Form II)” value in data set [5] (FaSSGF) was “about 230 times”; in data set [5] (FaSSIF) it was “about 100 times”. For the same molecule, the “pH (0 h)” value in data set [5] (FaSSGF) was 1.60; in data set [5] (FaSSIF), 6.50. In addition, the Concentration is 46.8 µg/mL in data set [5] (FaSSGF, 0.5 h); 4.6 µg/mL in data set [5] (FaSSGF, 2.0 h); 155 µg/mL in data set [5] (FaSSIF, 0.25 h); 164 µg/mL in data set [5] (FaSSIF, 0.5 h); 160 µg/mL in data set [5] (FaSSIF, 0.75 h); 155 µg/mL in data set [5] (FaSSIF, 1.0 h). Also, the Concentration in data set [5] (FaSSIF, 2.0 h) is 14.5 µg/mL. Besides, the results for the “pH (24 h)” value in data set [5] (FaSSGF) and in data set [5] (FaSSIF) were 1.66 and 6.83, respectively. The “XRPD (filter cake, crystal form)” value in data set [5] (FaSSGF) and in data set [5] (FaSSIF) was “Changed” throughout.
